Test results published in the supplement of paper PMC10307832.

Legend:
Assay in all cases: relative viability (nuclei count vs DMSO), 5 days (fraction); higher = more cells survive
[1] = compound: C1/C(=C\C2=CC=CS2)/C(=O)/C(=C/C3=CC=CS3)/C1 + COc1cccc2cc(-c3nc([C@H]4CC[C@H](C(=O)O)CC4)n4ncnc(N)c34)[nH]c12 [OSI-027] (partner 0.5 µM)
Outline: (§1)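 A single step with final 0.05% Triton X-100, 1% formaldehyde and 1 ug/ml Hoechst fixed the cells and stained nuclei 5 days after treatment. Lung cancer cell lines in 1536-well plates had been treated by pin tool the day after seeding with one drug alone or a fixed anchor-drug dose plus five library-drug doses (not always all listed) in √10 steps, and nuclei were counted on 4× images. Relative viability is the ratio of nuclei in treated wells to nuclei in vehicle wells, taken as the median of duplicate plates.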

[2] = compound: C1/C(=C\C2=CC=CS2)/C(=O)/C(=C/C3=CC=CS3)/C1 + N=C(N)NC(=N)NCCc1ccccc1 [Phenformin] (partner 250 µM)
Outline: as §1

[3] = compound: C[C@]12O[C@H](C[C@]1(O)CO)n1c3ccccc3c3c4c(c5c6ccccc6n2c5c31)CNC4=O [Lestaurtinib] + CC(C)C[C@H](NC(=O)[C@H](Cc1ccccc1)NC(=O)c1cnccn1)B(O)O [Bortezomib] (partner 0.002 µM)
Outline: as §1

[4] = compound: C1=CC(=CC=C1C2=CC(=C(S2)NC(=O)N)C(=O)N)F [TPCA-1] + CC(C)C[C@H](NC(=O)[C@H](Cc1ccccc1)NC(=O)c1cnccn1)B(O)O [Bortezomib] (partner 0.002 µM)
Outline: as §1

Cell Line | relative viability ([1]; first compound 0.2 µM) | relative viability ([1]; first compound 0.6325 µM) | relative viability ([1]; first compound 2 µM) | relative viability ([1]; first compound 6.325 µM) | relative viability ([1]; first compound 20 µM) | relative viability ([2]; first compound 0.2 µM) | relative viability ([2]; first compound 0.6325 µM) | relative viability ([2]; first compound 2 µM) | relative viability ([2]; first compound 6.325 µM) | relative viability ([2]; first compound 20 µM) | relative viability ([3]; first compound 0.005 µM) | relative viability ([3]; first compound 0.01581 µM) | relative viability ([3]; first compound 0.05 µM) | relative viability ([3]; first compound 0.1581 µM) | relative viability ([3]; first compound 0.5 µM) | relative viability ([4]; first compound 0.04 µM) | relative viability ([4]; first compound 0.1265 µM) | relative viability ([4]; first compound 0.4 µM) | relative viability ([4]; first compound 1.265 µM) | relative viability ([4]; first compound 4 µM)
LU99A | 0.329 | 0.286 | 0.33 | 0.322 | 0.291 | 0.771 | 0.819 | 0.857 | 0.819 | 0.801 | 1.02 | 1.02 | 0.516 | 0.382 | 0.208 | 1.32 | 1.13 | 1.01 | 0.971 | 0.48
LXF-289 | 0.869 | 0.811 | 0.852 | 0.696 | 0.729 | 0.553 | 0.536 | 0.554 | 0.459 | 0.513 | 0.975 | 1.08 | 0.75 | 0.762 | 0.185 | 1.03 | 0.941 | 0.987 | 1.01 | 0.781
NCI-H23 | 0.689 | 0.683 | 0.717 | 0.572 | 0.579 | 0.775 | 0.863 | 0.828 | 0.78 | 0.699 | 0.904 | 1.04 | 0.642 | 1.1 | 0.255 | 1.12 | 0.935 | 0.909 | 1.11 | 0.512
NCI-H322M | 0.559 | 0.658 | 0.652 | 0.564 | 0.516 | 0.85 | 0.814 | 0.923 | 0.628 | 0.768 | 1.25 | 1.34 | 1.13 | 0.588 | 0.967 | 1.18 | 1.17 | 1.36 | 1.24 | 1.27
NCI-H441 | 0.795 | 0.661 | 0.548 | 0.602 | 0.596 | 0.826 | 1.01 | 0.955 | 0.77 | 0.772 | 0.4 | 0.618 | 0.603 | 0.295 | 0.367 | 0.63 | 0.32 | 0.42 | 0.266 | 0.404
NCI-H460 | 0.743 | 0.81 | 0.747 | 0.515 | 0.605 | 0.543 | 0.568 | 0.519 | 0.344 | 0.522 | 1.08 | 1.35 | 0.926 | 1.44 | 0.84 | 1.11 | 0.877 | 1.09 | 0.839 | 0.493
NCI-H520 | 0.265 | 0.269 | 0.295 | 0.306 | 0.244 | 0.744 | 0.605 | 0.766 | 0.535 | 0.443 | 0.712 | 0.724 | 0.282 | 0.321 | 0.224 | 0.82 | 0.607 | 0.717 | 0.453 | 0.252
NCI-H596 | 0.76 | 0.781 | 1.01 | 0.699 | 0.794 | 0.711 | 0.799 | 0.846 | 0.78 | 0.857 | 1.16 | 1.28 | 0.969 | 1.29 | 1.06 | 1.07 | 0.976 | 1.07 |  | 0.976
NCI-H647 | 0.624 | 0.716 | 0.67 | 0.391 | 0.684 | 0.55 | 0.505 | 0.579 | 0.474 | 0.485 | 0.994 | 0.828 | 0.276 | 0.244 | 0.133 | 1.26 | 0.809 | 0.954 | 0.751 | 0.418
NCI-H650 | 0.578 | 0.465 | 0.591 | 0.53 | 0.485 | 0.43 | 0.442 | 0.465 | 0.45 | 0.449 | 0.651 | 1.03 | 0.678 | 0.452 | 0.314 | 0.877 | 0.898 | 0.923 | 0.326 | 0.554
NCI-H661 | 0.766 | 0.753 | 0.736 | 0.664 | 0.735 | 0.288 | 0.259 | 0.275 | 0.253 | 0.307 | 0.736 | 0.813 | 0.831 | 0.685 | 0.436 | 0.651 | 0.662 | 0.986 | 0.753 | 0.501
NCI-H727 | 0.716 | 0.58 | 0.975 | 0.592 | 0.582 | 0.64 | 0.642 | 0.671 | 0.525 | 0.494 | 0.862 | 1.42 | 0.752 | 0.76 | 0.291 | 1.07 | 0.707 | 0.923 | 0.674 | 0.696
NCI-H838 | 0.412 | 0.38 | 0.409 | 0.491 | 0.365 | 0.689 | 0.541 | 0.687 | 0.65 | 0.519 | 0.79 | 0.783 | 0.615 | 0.472 | 0.148 | 1.2 | 0.594 | 0.876 | 0.35 | 0.739
NCI-H1355 | 0.481 | 0.42 | 0.412 | 0.335 | 0.424 | 0.512 | 0.492 | 0.465 | 0.397 | 0.434 | 1.36 | 1.2 | 1.21 | 1.03 | 0.571 | 1.25 | 1.09 | 1.15 | 1.01 | 0.984
NCI-H1437 | 0.866 | 0.782 | 0.889 | 0.88 | 0.834 | 0.294 | 0.281 | 0.402 | 0.26 | 0.318 | 0.67 | 0.479 | 0.431 | 0.521 | 0.429 | 0.586 | 0.496 | 0.577 | 0.367 | 0.504
NCI-H1563 | 0.774 | 0.787 | 0.717 | 0.729 | 0.773 | 0.672 | 0.66 | 0.655 | 0.614 | 0.593 | 0.938 | 0.836 | 0.741 | 0.957 | 0.705 | 0.924 | 0.875 | 0.836 | 0.741 | 0.793
